Laboratory results published in paper doi:10.1101/2025.11.28.691146v1 (biorxiv, 2025).

How the values were obtained:
McrA [1] = target: T1, McrA (Streptomyces lavendulae, UniProt P43485); assay: thermal shift, label-free intrinsic fluorescence; assay type: binding; conditions: read-out: dTm at 1 mM
T1 sequence (P43485 1-448): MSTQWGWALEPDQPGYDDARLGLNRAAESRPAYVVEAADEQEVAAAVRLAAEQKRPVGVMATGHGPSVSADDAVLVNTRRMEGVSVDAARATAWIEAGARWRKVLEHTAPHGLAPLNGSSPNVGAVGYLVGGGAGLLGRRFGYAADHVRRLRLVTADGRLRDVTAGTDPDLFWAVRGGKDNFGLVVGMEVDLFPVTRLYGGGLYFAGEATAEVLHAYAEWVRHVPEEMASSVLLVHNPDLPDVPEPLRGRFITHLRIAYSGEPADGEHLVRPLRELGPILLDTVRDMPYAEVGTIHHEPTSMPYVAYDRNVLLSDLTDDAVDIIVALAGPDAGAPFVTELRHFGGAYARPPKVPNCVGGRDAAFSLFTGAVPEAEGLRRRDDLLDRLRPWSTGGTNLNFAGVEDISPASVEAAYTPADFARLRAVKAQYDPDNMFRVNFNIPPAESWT

McrA [2] = target: T1, McrA; assay: microscale thermophoresis; assay type: binding

ΔTm at 1000 µM (McrA [1]): 0.5 °C
Kd (McrA [2]): 15.9 ± 4.5 µM
Structure (SMILES): CO[C@@]12[C@H](COC(N)=O)C3=C(C(=O)C(C)=C(N)C3=O)N1C[C@@H]1N[C@@H]12 [mitomycin C]
